Results published in patent US20240287065A1, “COMPOUND AS CDK KINASE INHIBITOR AND USE THEREOF” (TYK MEDICINES (ZHENGZHOU) , INC., priority 2021, published 2024).
pIC50: −log10 of the molar value.

Target: CDK6/CycD1 (Homo sapiens, UniProt Q00534)
Assay: Enzyme activity test
Assay type: biochemical
Details: not given
Description: (§1) • 1. The test compounds and pabocinib were configured into a […] solution of DMSO; • 2. 20 nL of stock solution was transferred to a 384-well plate using Echo550. DMSO was used as a blank control.
(§2) • 1. according to the following table to prepare 1.3X enzyme solution containing enzyme, substrate and cofactor; • 2. 15 μL of 1.3X enzyme solution was added to each well and the mixture was incubated for 30 min at room temperature; • 3. 5 μL of ATP solution was added to initiate the reaction. The final volume of each well was 20 μL; • 4. After incubation for 150 min at room temperature, 75 μL of termination buffer solution was added to terminate the experiment; • 5. The samples were analyzed using EZ reader.
(§3) The % inhibition was calculated using the following equation
(§4) The one treated with DMSO is the positive control (PC)
(§5) The one without enzyme is the negative control (NC)
(§6) % Inhibition=100-100*((CRPC−CRsample)/(CRPC−CRNC))

Chain of CDK6/CycD1 (Q00534 whole entry, species assumed): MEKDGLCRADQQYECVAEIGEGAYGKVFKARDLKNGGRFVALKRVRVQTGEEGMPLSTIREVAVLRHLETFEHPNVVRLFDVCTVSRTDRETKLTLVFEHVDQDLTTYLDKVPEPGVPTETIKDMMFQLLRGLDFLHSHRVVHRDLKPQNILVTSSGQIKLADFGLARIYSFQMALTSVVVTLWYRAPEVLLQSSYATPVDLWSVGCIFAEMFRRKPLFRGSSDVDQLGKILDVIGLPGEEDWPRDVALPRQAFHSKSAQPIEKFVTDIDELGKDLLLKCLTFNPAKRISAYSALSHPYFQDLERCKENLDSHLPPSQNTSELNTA
Chain of CDK6/CycD1 (P24385 whole entry partner, species assumed): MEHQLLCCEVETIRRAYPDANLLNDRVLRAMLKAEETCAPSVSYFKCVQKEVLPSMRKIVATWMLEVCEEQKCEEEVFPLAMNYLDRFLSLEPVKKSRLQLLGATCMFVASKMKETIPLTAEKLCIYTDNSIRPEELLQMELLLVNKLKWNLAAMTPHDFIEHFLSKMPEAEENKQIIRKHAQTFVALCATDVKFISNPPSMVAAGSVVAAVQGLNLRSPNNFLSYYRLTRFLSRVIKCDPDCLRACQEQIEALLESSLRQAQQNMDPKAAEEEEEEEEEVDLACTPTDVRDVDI

Row | Structure (SMILES) | pIC50
1 | C[C@@]1(O)CCC[C@H]1n1c(=O)c(OC(F)F)cc2cnc(NC3CCN(S(=O)(=O)c4cc(F)cc(F)c4)CC3)nc21 [Example 15] | > 8.00
2 | C[C@@]1(O)CCC[C@H]1n1c(=O)c(OC(F)F)cc2cnc(NC3CCN(S(=O)(=O)c4ccccc4F)CC3)nc21 [Example 25] | > 8.00
3 | CC(C)(O)Cn1cc(S(=O)(=O)N2CCC(Nc3ncc4cc(OC(F)F)c(=O)n([C@@H]5CCC[C@@]5(C)O)c4n3)CC2)cn1 [Example 75] | > 8.00
4 | C[C@@]1(O)CCC[C@H]1n1c(=O)c(OC(F)F)cc2cnc(Nc3ccc4c(c3)CN(S(C)(=O)=O)C4)nc21 [Example 64] | > 8.00
5 | C[C@@]1(O)CCC[C@H]1n1c(=O)c(OC(F)F)cc2cnc(NC3CCN(S(=O)(=O)c4ccc(F)cc4F)CC3)nc21 [Example 7] | > 8.00

Target: CDK2/CycE1 (Homo sapiens, UniProt P24941)
Assay: Enzyme activity test
Assay type: biochemical
Details: not given
Description: as §1, §2, §3, §4, §5, §6

Row | Structure (SMILES) | pIC50
6 | C[C@@]1(O)CCC[C@H]1n1c(=O)c(OC(F)F)cc2cnc(NC3CCN(S(=O)(=O)c4cc(F)cc(F)c4)CC3)nc21 [Example 15] | > 8.00
7 | C[C@@]1(O)CCC[C@H]1n1c(=O)c(OC(F)F)cc2cnc(NC3CCN(S(=O)(=O)c4ccccc4F)CC3)nc21 [Example 25] | > 8.00
8 | CC(C)(O)Cn1cc(S(=O)(=O)N2CCC(Nc3ncc4cc(OC(F)F)c(=O)n([C@@H]5CCC[C@@]5(C)O)c4n3)CC2)cn1 [Example 75] | > 8.00
9 | C[C@@]1(O)CCC[C@H]1n1c(=O)c(OC(F)F)cc2cnc(Nc3ccc4c(c3)CN(S(C)(=O)=O)C4)nc21 [Example 64] | > 8.00
10 | C[C@@]1(O)CCC[C@H]1n1c(=O)c(OC(F)F)cc2cnc(NC3CCN(S(=O)(=O)c4ccc(F)cc4F)CC3)nc21 [Example 7] | > 8.00

Target: CDK4/CycD3 (Homo sapiens, UniProt P11802)
Sequence (P11802 whole entry, species assumed): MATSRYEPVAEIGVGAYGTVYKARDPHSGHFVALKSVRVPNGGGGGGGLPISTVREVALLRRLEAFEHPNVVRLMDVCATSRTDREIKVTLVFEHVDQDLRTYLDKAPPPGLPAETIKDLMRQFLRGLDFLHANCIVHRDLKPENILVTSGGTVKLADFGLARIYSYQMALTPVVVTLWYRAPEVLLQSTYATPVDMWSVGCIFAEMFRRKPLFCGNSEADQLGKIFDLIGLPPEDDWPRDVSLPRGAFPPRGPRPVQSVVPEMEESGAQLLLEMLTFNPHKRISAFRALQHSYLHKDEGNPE
Sequence (P30281 whole entry partner, species assumed): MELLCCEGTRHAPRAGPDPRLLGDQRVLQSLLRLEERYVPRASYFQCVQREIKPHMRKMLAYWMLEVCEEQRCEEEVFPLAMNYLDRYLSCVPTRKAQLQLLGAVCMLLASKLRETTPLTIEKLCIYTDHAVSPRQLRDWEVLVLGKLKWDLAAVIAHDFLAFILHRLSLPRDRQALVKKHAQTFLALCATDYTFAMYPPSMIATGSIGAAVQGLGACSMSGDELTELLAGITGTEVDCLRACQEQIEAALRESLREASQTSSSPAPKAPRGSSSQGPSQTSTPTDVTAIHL
Assay: Enzyme activity test
Assay type: biochemical
Details: not given
Description: as §1, §2, §3, §4, §5, §6

Row | Structure (SMILES) | pIC50
11 | C[C@@]1(O)CCC[C@H]1n1c(=O)c(OC(F)F)cc2cnc(NC3CCN(S(=O)(=O)c4cc(F)cc(F)c4)CC3)nc21 [Example 15] | > 8.00
12 | C[C@@]1(O)CCC[C@H]1n1c(=O)c(OC(F)F)cc2cnc(NC3CCN(S(=O)(=O)c4ccccc4F)CC3)nc21 [Example 25] | 7.00 to 8.00
13 | CC(C)(O)Cn1cc(S(=O)(=O)N2CCC(Nc3ncc4cc(OC(F)F)c(=O)n([C@@H]5CCC[C@@]5(C)O)c4n3)CC2)cn1 [Example 75] | 7.00 to 8.00
14 | C[C@@]1(O)CCC[C@H]1n1c(=O)c(OC(F)F)cc2cnc(Nc3ccc4c(c3)CN(S(C)(=O)=O)C4)nc21 [Example 64] | 7.00 to 8.00
15 | C[C@@]1(O)CCC[C@H]1n1c(=O)c(OC(F)F)cc2cnc(NC3CCN(S(=O)(=O)c4ccc(F)cc4F)CC3)nc21 [Example 7] | > 8.00

Test system: OVCAR3 cells
Assay: Cell proliferation inhibition assay (MTT, 7 days)
Assay type: cell-based
Details: Homo sapiens, OVCAR-3, 168 h, 7 days incubation
Description: (§7) MCF7, T47D, OVCAR3 and HCC1806 cells were inoculated in 96-well plates at 3000, 3000, 2500, and 2000 cells/well, respectively, and cultured overnight at 37° C., 5% C02 incubator.
(§8) 1. […] Then 2.5 μl of the stock solution was dissolved in 497.5 μl of DMSO-free medium, and then a 3-fold serial gradient dilution was performed with 0.1% DMSO medium for a total of 9 concentrations, and the concentrations of the compounds after dilution were as follows: • 10000 nM, 3333.33 nM, 1111.11 nM, 370.34 nM, 123.45 nM, 41.15 nM, 13.72 nM, 4.57 nM, and 1.52 nM. • b) After fully mixing, 20 μL of compound solutions were added into cell culture plates containing 80 μL of cells respectively, with 4 replicate wells for each concentration. • c) The cells were transferred to an incubator and incubated for 7 days, and exchanged with fresh culture medium containing the same concentration of compounds when incubated to day 4. 2. MTT assay • a) The cell culture plate was taken out and 10 μL of 5 mg/ml MTT was added to the hood. • b) The cell culture plate was put back into the incubator and continued to incubate for 3 hours. • c) The cell culture plate was taken out to remove the culture medium, and 100 μL of isopropanol (0.4 mMHCl, 0.4% NP40) was added to the plate, and the plate was shaken on a shaker at room temperature for 30 minutes and read at 570 nm. 3. Data analysis
(§9) The survival rate (% Cell Survival) was calculated using the following equation:
(§10) % Cell Survival=100%×(OD_Sample−OD_LCave)/(OD_HC−OD_LCave) • OD_HC: 0.1‰ cell readings of DMSO control • OD_Sample: cell readings of compound addition • OD_LC: readings of blank medium • Analyed by Prizm: Dose-response-Inhibition Log(inhibitor) vs response (three parameters for the best fit)
(§11) IC50 (nM) values were calculated by concentration-response curve fitting.

Row | Structure (SMILES) | IC50 [nM]
16 | C[C@@]1(O)CCC[C@H]1n1c(=O)c(OC(F)F)cc2cnc(NC3CCN(S(=O)(=O)c4cc(F)cc(F)c4)CC3)nc21 [Example 15] | 50 to 5200
17 | C[C@@]1(O)CCC[C@H]1n1c(=O)c(OC(F)F)cc2cnc(NC3CCN(S(=O)(=O)c4ccccc4F)CC3)nc21 [Example 25] | ≤ 50
18 | CC(C)(O)Cn1cc(S(=O)(=O)N2CCC(Nc3ncc4cc(OC(F)F)c(=O)n([C@@H]5CCC[C@@]5(C)O)c4n3)CC2)cn1 [Example 75] | ≤ 50
19 | C[C@@]1(O)CCC[C@H]1n1c(=O)c(OC(F)F)cc2cnc(Nc3ccc4c(c3)CN(S(C)(=O)=O)C4)nc21 [Example 64] | ≤ 50
20 | C[C@@]1(O)CCC[C@H]1n1c(=O)c(OC(F)F)cc2cnc(NC3CCN(S(=O)(=O)c4ccc(F)cc4F)CC3)nc21 [Example 7] | 50 to 5200

Test system: T47D cells
Assay: Cell proliferation inhibition assay (MTT, 7 days)
Assay type: cell-based
Details: Homo sapiens, 168 h, 7 days incubation
Description: as §7, §8, §9, §10, §11

Row | Structure (SMILES) | IC50 [nM]
21 | C[C@@]1(O)CCC[C@H]1n1c(=O)c(OC(F)F)cc2cnc(NC3CCN(S(=O)(=O)c4cc(F)cc(F)c4)CC3)nc21 [Example 15] | 50 to 5200
22 | C[C@@]1(O)CCC[C@H]1n1c(=O)c(OC(F)F)cc2cnc(NC3CCN(S(=O)(=O)c4ccccc4F)CC3)nc21 [Example 25] | ≤ 50
23 | CC(C)(O)Cn1cc(S(=O)(=O)N2CCC(Nc3ncc4cc(OC(F)F)c(=O)n([C@@H]5CCC[C@@]5(C)O)c4n3)CC2)cn1 [Example 75] | ≤ 50
24 | C[C@@]1(O)CCC[C@H]1n1c(=O)c(OC(F)F)cc2cnc(Nc3ccc4c(c3)CN(S(C)(=O)=O)C4)nc21 [Example 64] | ≤ 50
25 | C[C@@]1(O)CCC[C@H]1n1c(=O)c(OC(F)F)cc2cnc(NC3CCN(S(=O)(=O)c4ccc(F)cc4F)CC3)nc21 [Example 7] | ≤ 50

Test system: MCF7 cells
Assay: Cell proliferation inhibition assay (MTT, 7 days)
Assay type: cell-based
Details: Homo sapiens, 168 h, 7 days incubation
Description: as §7, §8, §9, §10, §11

Row | Structure (SMILES) | IC50 [nM]
26 | C[C@@]1(O)CCC[C@H]1n1c(=O)c(OC(F)F)cc2cnc(NC3CCN(S(=O)(=O)c4cc(F)cc(F)c4)CC3)nc21 [Example 15] | 50 to 5200
27 | C[C@@]1(O)CCC[C@H]1n1c(=O)c(OC(F)F)cc2cnc(NC3CCN(S(=O)(=O)c4ccccc4F)CC3)nc21 [Example 25] | 50 to 5200
28 | CC(C)(O)Cn1cc(S(=O)(=O)N2CCC(Nc3ncc4cc(OC(F)F)c(=O)n([C@@H]5CCC[C@@]5(C)O)c4n3)CC2)cn1 [Example 75] | ≤ 50
29 | C[C@@]1(O)CCC[C@H]1n1c(=O)c(OC(F)F)cc2cnc(Nc3ccc4c(c3)CN(S(C)(=O)=O)C4)nc21 [Example 64] | 50 to 5200
30 | C[C@@]1(O)CCC[C@H]1n1c(=O)c(OC(F)F)cc2cnc(NC3CCN(S(=O)(=O)c4ccc(F)cc4F)CC3)nc21 [Example 7] | 50 to 5200

Test system: HCC1806 cells
Assay: Cell proliferation inhibition assay (MTT, 7 days)
Assay type: cell-based
Details: Homo sapiens, HCC1806, 168 h, HCC1086 [sic], 7 days incubation
Description: as §7, §8, §9, §10, §11

Row | Structure (SMILES) | IC50 [nM]
31 | C[C@@]1(O)CCC[C@H]1n1c(=O)c(OC(F)F)cc2cnc(NC3CCN(S(=O)(=O)c4cc(F)cc(F)c4)CC3)nc21 [Example 15] | 50 to 5200
32 | C[C@@]1(O)CCC[C@H]1n1c(=O)c(OC(F)F)cc2cnc(NC3CCN(S(=O)(=O)c4ccccc4F)CC3)nc21 [Example 25] | 50 to 5200
33 | CC(C)(O)Cn1cc(S(=O)(=O)N2CCC(Nc3ncc4cc(OC(F)F)c(=O)n([C@@H]5CCC[C@@]5(C)O)c4n3)CC2)cn1 [Example 75] | 50 to 5200
34 | C[C@@]1(O)CCC[C@H]1n1c(=O)c(OC(F)F)cc2cnc(Nc3ccc4c(c3)CN(S(C)(=O)=O)C4)nc21 [Example 64] | 50 to 5200
35 | C[C@@]1(O)CCC[C@H]1n1c(=O)c(OC(F)F)cc2cnc(NC3CCN(S(=O)(=O)c4ccc(F)cc4F)CC3)nc21 [Example 7] | 50 to 5200
